Data set [1] in a line: In vivo pharmacokinetic study of ponatinib in rats (plasma by HPLC-FLD, non-compartmental analysis). Also on record: species or system Male SD rats. To be noted: male, rat; for half-life: n = 3, read-out: T1/2 (terminal half-life) (converted). As to the method:
Animal experiments were conducted following the guidelines of the Korea Research Institute of Bioscience and Biotechnology (KRIBB-AEC-20309). Male SD rats (Koatech Inc.; Pyeongtaek, Gyeonggi, Republic of Korea) were acclimated to laboratory conditions for at least one week before experimentation. Animals were permitted ad libitum access to food and water, except during the 8 h fasting period before drug administration; however, water was continuously available.
Rats were administered ponatinib, prepared in a DMAC, cremophor EL, and 20 % HPβCD) in water (10:10:80) for intravenous (IV; 4 mg/kg) and oral administration (7.5 mg/kg). Blood samples (approximately 100 μL) were collected in lithium heparin-treated tubes through the jugular vein at 5, 15, and 30 min, and 1, 3, 6, 12, 24, 36, and 48 h for the IV group (n = 3) and at 30 min and 1, 2, 4, 6, 8, 12, 24, 36, and 48 h post-dose for the oral group (n = 3). The samples were centrifuged at 13,500×g for 10 min at 4 °C. Plasma was stored at −20 °C until analysis.
Plasma ponatinib concentrations were determined using the HPLC-FLD method developed in this study. Pharmacokinetic parameters were calculated using non-compartmental analysis via WinNonlin software (Pharsight Corporation, Mountain View, CA, USA). The key parameters were the area under the plasma concentration-time curve from zero to the last quantifiable time point (AUClast) and infinity (AUCinf), both of which were calculated using the linear trapezoidal method. The terminal half-life (T1/2) was derived from the elimination constant at the terminal phase (λ), and total clearance (CL) and the steady-state volume of distribution (Vss) were calculated. The maximum plasma concentration (Cmax) and time to reach Cmax (Tmax) were obtained directly from the plasma concentration-time graph. The oral bioavailability (F) was determined by dividing the dose-normalized AUCinf value following oral administration by that following IV administration.

The nature of data set [2]: Stability of ponatinib in rat plasma under storage conditions. Format: in vitro ADME. To be noted: for Stability (%, mean ± SD): n = 3. The procedure: The stability of ponatinib in rat plasma was determined under various conditions using LQC and HQC samples in triplicate. The stability tests included bench-top exposure at room temperature for 2 h, long-term storage at −20 °C for 3 weeks, three freeze-thaw cycles, and 24-h autosampler storage at 10 °C. The stability of ponatinib was determined by comparing the measured concentrations with nominal values.

Like-named read-outs stand apart in the source and are kept apart here.

Experimental findings from article PMC11471595, “Quality by design-based approach for the development of an analytical method for quantifying ponatinib in rat plasma” (Heliyon, 2024) are described below.

What is called bioavailability is the share of a dose that reaches the circulation, judged against a reference dose that is usually intravenous. For orientation: AUC(0-inf) means the area under the concentration-time curve extrapolated to infinity. A higher AUC(0-inf) goes with high exposure. Broadly, the AUC(0-t) is exposure summed from dosing to a finite time, without extrapolation to infinity. Usually clearance stands for the volume of plasma or blood freed of the substance per unit of time. As a reminder, the Cmax is the maximum level reached in the sampled fluid or tissue. As a reminder, the Tmax is the time at which the peak concentration occurs.

With `Cc1ccc(C(=O)Nc2ccc(CN3CCN(C)CC3)c(C(F)(F)F)c2)cc1C#Cc1cnc2cccnn12` [ponatinib, Ponatinib], the bioavailability in data set [1] (SD, PO 7.5 mg/kg vs IV 4 mg/kg, dose-normalized AUCPO/AUCIV × 100, read-out: F (oral bioavailability)) was 48.2 ± 3.9%. The area under the curve AUC(0-inf) in data set [1] (IV 4 mg/kg, mean ± SD, n = 3) was 6140 ± 750 ng·h/mL; in data set [1] (PO 7.5 mg/kg, mean ± SD, n = 3), 5520 ± 280 ng·h/mL. The exposure AUC(0-t) was 6100 ± 730 ng·h/mL in data set [1] (IV 4 mg/kg, mean ± SD, n = 3) and 5400 ± 270 ng·h/mL in data set [1] (PO 7.5 mg/kg, mean ± SD, n = 3). Besides, the clearance in data set [1] (IV 4 mg/kg, mean ± SD, n = 3, read-out: CL (total clearance) (converted)) is 10.9 mL/min/kg. The half-life in data set [1] (IV 4 mg/kg, mean ± SD) is 410 ± 13.2 min; in data set [1] (PO 7.5 mg/kg, mean ± SD), 525 ± 40.2 min. Besides, the Vd in data set [1] (IV 4 mg/kg, mean ± SD, n = 3, read-out: Vss (steady-state volume of distribution)) stood at 5.39 ± 0.2 L/kg. Also, the Cmax in data set [1] (PO 7.5 mg/kg, mean ± SD, n = 3) stood at 308 ± 11 ng/mL. Also, the time of peak concentration (Tmax) in data set [1] (PO 7.5 mg/kg, mean ± SD, n = 3) turned out to be 5.34 ± 2.31 h. In addition, the “Stability (%, mean ± SD)” value in data set [2] (processed rat plasma, autosampler (10 °C for 24 h), HQC 800 ng/mL) turned out to be 95.2 ± 11.1%; in data set [2] (processed rat plasma, autosampler (10 °C for 24 h), LQC 3 ng/mL), 93.4 ± 1.3%; in data set [2] (rat plasma, bench top (room temperature for 2 h), HQC 800 ng/mL), 91.5 ± 2.1%; in data set [2] (rat plasma, bench top (room temperature for 2 h), LQC 3 ng/mL), 108 ± 6%; in data set [2] (rat plasma, freeze-thaw (3 cycles), HQC 800 ng/mL) it was 92.1 ± 5.0%; in data set [2] (rat plasma, freeze-thaw (3 cycles), LQC 3 ng/mL), 89.1 ± 7.0%. For the same compound, the “Stability (%, mean ± SD)” value in data set [2] (rat plasma, long term (−20 °C for 3 weeks), HQC 800 ng/mL) came out at 96.4 ± 4.3%; in data set [2] (rat plasma, long term (−20 °C for 3 weeks), LQC 3 ng/mL) it was 93.1 ± 7.9%. In data set [2] (rat plasma, room temperature for 2 h), the “Stability, range over LQC and HQC” value is 91.5 % to 108.
